One data set relates to ileum (HCO3− secretion). The data set can be described thus: pH stat HCO3− secretion in ileum. In kind it is cell-based, mouse. To be noted: for Effect on lumen Cl−-independent HCO3− secretion stimulated by glucose: 100 μM on lumen side, 6 mM glucose. The procedure: pH stat studies are performed to determine whether HCO3^− secretion contributes to the unaccounted portion of the Isc. At least two modes of HCO3^− secretion in the mouse small intestine have been identified by the present inventors: 1) Cl^−-dependent, electroneutral Cl^−—HCO3^− exchange, and 2) Cl^−-independent, electrogenic HCO3^− secretion. […] Specifically, HCO3^−-free, poorly buffered solution is added to both sides of the tissues mounted in an Ussing chamber and both sides of the tissues are bubbled with 100% O2. Minimal HCO3^− secretion (0.1±0.01 mEq.h^−1.cm^−2, n=12) is recorded under such conditions. Subsequent addition of HCO3^−-containing buffered solution to the basolateral side and bubbling with 95% O2 and 5% CO2 on that side results in significant HCO3^− secretion 3.8±0.2 mEq.h^−1.cm^−2 (n=9). To determine whether lumen Cl^−-independent HCO3^− secretion plays a role in HCO3^− secretion (in the absence of lumen glucose), pH stat experiments are performed in the absence of lumen Cl^−. In the absence of lumen Cl^−, minimal HCO3^− secretion is recorded (0.4±0.1 pEq.h^−1.cm^−2) (FIG. 5A). […] The HCO3^− secretion in the presence of glucose could be due to a lumen Cl^−-dependent, electroneutral Cl—HCO3^− exchange or a lumen Cl^−-independent anion channel-mediated HCO3^− secretion. To assess the mechanism of glucose-stimulated HCO3^− secretion, glucose is added to the mucosal side.

For a further data set, the system named is mouse ileum. The data set can be described thus: Bio-electric measurement of short-circuit current (Isc) in ileal sheets, Ussing chamber. In kind it is cell-based. To be noted: for Effect on glucose- or 3-OMG-stimulated increase in Isc: tissues pre-treated with H-89. From the text: (§1) Normally fed, 8-week-old, male NIH Swiss mice are sacrificed by CO2 inhalation, followed by cervical dislocation. The small intestine is gently removed, and the segment is washed and flushed in ice-cold Ringer's solution. Then the mucosa is separated from the serosa and the muscular layers by striping through the submucosal plane as previously described (Zhang et al. (2007) J Physiol 581(3):1221-1233). Following exsanguinations, ileal mucosa is obtained from a 10 cm segment close to the caecum. All experiments are approved by the University of Florida Institutional Animal Care and Use Committee.
Ion transport studies are performed on ileal sheets. Tissues are then mounted in between the two halves of an Ussing type-Lucite chamber with 0.3 cm^−2 exposed surface areas (P2304, Physiologic Instruments, San Diego, Calif., USA). Regular Ringer's solution (115 mM NaCl, 25 mM NaHCO3, 4.8 mM K2HPO4, 2.4 mM KH2PO4, 1.2 mM MgCl2 and 1.2 mM CaCl2) bubbled with 95% O2: 5% CO2 is used bilaterally as bathing solution for the tissues and the temperature is maintained constant at 37° C. The chambers are balanced to eliminate osmotic and hydrostatic forces. Resistance due to fluid is also compensated. The tissues are allowed to stabilize. The basal short-circuit current (Isc) and the corresponding conductance (G) are recorded using a computer controlled voltage/current clamp device (VCC MC-8, Physiologic Instruments).
Tissues paired with similar conductance and current are treated with or without 100 μM H-89 (Santa Cruz Biotechnology, Inc, Santa Cruz, Calif.), an irreversible protein kinase A (PKA) inhibitor. The tissues are incubated with H-89 for 30 minutes. Increasing concentrations of glucose (0.015-8 mM) are added every 5 minutes and the peak current is noted. Saturation kinetic constant is calculated for the corresponding Km and Vmax for treated and untreated tissues.
To investigate whether inhibition of glucose transport abolishes PKA-sensitive current, experiments are conducted using phlorizin (Santa Cruz Biotechnology, Inc, Santa Cruz, Calif., USA), a reversible competitive inhibitor of SGLT1. Specifically, ileal tissues mounted in Ussing chamber are treated with 100 μM phlorizin on the lumen side and glucose saturation kinetic studies are conducted.

Substrate in data set [1]: CO[C@@H]([C@H](O)[C@H](O)CO)[C@@H](O)C=O
Briefly: Saturation kinetics of Na+-coupled glucose / 3-OMG transport (Isc, Ussing chamber, ileal sheets). In kind it is cell-based, mouse. The settings on record: 37.0 °C.
From the text: as §1
Ion transport studies are performed on ileal sheets. Tissues are then mounted in between the two halves of an Ussing type-Lucite chamber with 0.3 cm^−2 exposed surface areas (P2304, Physiologic Instruments, San Diego, Calif., USA). […] The basal short-circuit current (Isc) and the corresponding conductance (G) are recorded using a computer controlled voltage/current clamp device (VCC MC-8, Physiologic Instruments).
Tissues paired with similar conductance and current are treated with or without 100 μM H-89 (Santa Cruz Biotechnology, Inc, Santa Cruz, Calif.), an irreversible protein kinase A (PKA) inhibitor. […] Saturation kinetic constant is calculated for the corresponding Km and Vmax for treated and untreated tissues. […]

Where [2] appears, read: FIG. 5B, lumen Cl− present, 100 μM DIDS, 10 μM NPPB.

The source of these data is patent US20210299076A1, “AMINO ACID FORMULATIONS AND USES THEREOF” (University of Florida Research Foundation, Incorporated, priority 2012, published 2021).

“Also recorded” adds a separate entry of the source.

The term Km denotes the concentration of substrate that gives half-maximal velocity.

`O=S(=O)(O)c1cc(N=C=S)ccc1C=Cc1ccc(N=C=S)cc1S(=O)(=O)O` [DIDS, 4,4′-diisothiocyano-2,2′-stilbenedisulfonic acid]: the “Effect on HCO3− secretion in the absence of glucose” value with ileum (HCO3− secretion) (setting [2]) is reported as “abolishes HCO3^− secretion”.

Take `O=S(=O)(NCCNC/C=C/c1ccc(Br)cc1)c1cccc2cnccc12` [Formulation H-89]: the “Effect on glucose- or 3-OMG-stimulated increase in Isc” value in the data set with mouse ileum was “significant decrease in Isc”; with mouse ileum (listed as H89), “significant reduction”.

Regarding `COc1ccc(Cl)cc1C(=O)NCCc1ccc(S(=O)(=O)NC(=O)NC2CCCCC2)cc1` [Glibenclamide, glibenclamide], in the data set on ileum (HCO3− secretion), the “Effect on lumen Cl−-independent HCO3− secretion stimulated by glucose” value is on record as “inhibits”.

Turning to `O=C(O)c1cc([N+](=O)[O-])ccc1NCCCc1ccccc1` [NPPB, 5-nitro-2-(3-phenylpropylamino)-benzoic acid], the “Effect on lumen Cl−-independent HCO3− secretion stimulated by glucose” value in the data set with ileum (HCO3− secretion) is reported as “inhibits”. Also, in the data set on ileum (HCO3− secretion) (setting [2]), the “Effect on HCO3− secretion in the absence of glucose” value is given as “does not have any inhibitory effect” and the “Effect on HCO3− secretion in the presence of 6 mM glucose” value is listed as “inhibits”.

As to `N=C(N)NC(=O)c1nc(Cl)c(N)nc1N` [amiloride], the “Effect on Isc” value with mouse ileum (10 μM on mucosal side of small intestine) was “no effect”.

Regarding `O=C(CCc1ccc(O)cc1)c1c(O)cc(O)cc1O[C@@H]1O[C@H](CO)[C@@H](O)[C@H](O)[C@H]1O` [phlorizin], the “Effect on glucose- and/or 3-OMG-stimulated increase in Isc” value in the data set on mouse ileum (100 μM phlorizin on lumen side) is listed as “no response; also recorded: completely abolished”.

B1: SGLT1 (Mus musculus) (protein)
chain: MDSSTLSPAVTATDAPIPSYERIRNAADISVIVIYFVVVMAVGLWAMFSTNRGTVGGFFLAGRSMVWWPIGASLFASNIGSGHFVGLAGTGAAAGIAMGGFEWNALVLVVVLGWIFVPIYIKAGVVTMPEYLRKRFGGKRIQIYLSVLSLLLYIFTKISADIFSGAIFINLALGLDIYLAIFILLAITALYTITGGLAAVIYTDTLQTAIMLVGSFILTGFAFNEVGGYEAFMDKYMKAIPTKVSNGNFTAKEECYTPRADSFHIFRDPITGDMPWPGLIFGLAILALWYWCTDQVIVQRCLSAKNMSHVKADCTLCGYLKLLPMFLMVMPGMISRILYTEKIACVLPEECQKYCGTPVGCTNIAYPTLVVELMPNGLRGLMLSVMMASLMSSLTSIFNSASTLFTMDIYTKIRKKASEKELMIAGRLFILVLIGISIAWVPIVQSAQSGQLFDYIQSITSYLGPPIAAVFLLAIFCKRVNEQGAFWGLILGFLIGISRMITEFAYGTGSCMEPSNCPKIICGVHYLYFAIILFVISVITILIISFLTKPIPDVHLYRWCWSLRNSKEERIDLDAGEEEDIPEDSKDTIEIDTEAPQKKKGCFRRAYDLFCGLDQDKGPKMTKEEEEAMKMKMTDTSEKPLWRTVVNINGIILLAVAVFCHAYFA
notes: Ion transport studies are performed on ileal sheets; from tissue; host or cells: ileal mucosa of NIH Swiss mice
Turning to B1, the Michaelis-Menten constant (Km) in data set [1] (other: Table 1, no PKA inhibitor, n = 8 tissues) turned out to be 200 µM; in data set [1] (other: increasing lumen concentrations up to 8 mM, 140 mM Na+, no inhibitor), 220 ± 70 µM.
